# Legend:
# PI3Kdelta = PI3Kdelta (Homo sapiens (Human), UniProt O00329); test: HTRF PI3K biochemical assay, delta isoform; details: 0.3 nM enzyme, 100 uM ATP, 5 uM PIP2, form screened per table
# Method in brief: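 PI3Kδ at 0.3 nM preincubated 15 min with compound, then reacted 1 h at room temperature with 100 uM ATP and 5 uM PIP2. PIP3 product detected by competitive HTRF displacing biotin-PIP3 from GST-GRP1 PH domain, so signal falls with activity. 10-point 3-fold dose response.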
# PI3Kalpha = PI3Kalpha (Homo sapiens (Human), UniProt P42336); test: HTRF PI3K biochemical assay, alpha isoform (selectivity versus delta); details: relative ratio PI3K-alpha IC50 value / PI3K-delta IC50 value
# Method in brief: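 Recombinant human PI3Kα (0.5 nM) preincubated 15 min with compound, then reacted 1 h at room temperature with 100 uM ATP and 5 uM PIP2. PIP3 formation detected by HTRF competition with biotin-PIP3 for GST-GRP1 PH domain (Eu/APC, 665/620 nm); product lowers signal.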
# Chain of PI3Kalpha (P42336 whole entry, the tested form may be a part, canonical isoform): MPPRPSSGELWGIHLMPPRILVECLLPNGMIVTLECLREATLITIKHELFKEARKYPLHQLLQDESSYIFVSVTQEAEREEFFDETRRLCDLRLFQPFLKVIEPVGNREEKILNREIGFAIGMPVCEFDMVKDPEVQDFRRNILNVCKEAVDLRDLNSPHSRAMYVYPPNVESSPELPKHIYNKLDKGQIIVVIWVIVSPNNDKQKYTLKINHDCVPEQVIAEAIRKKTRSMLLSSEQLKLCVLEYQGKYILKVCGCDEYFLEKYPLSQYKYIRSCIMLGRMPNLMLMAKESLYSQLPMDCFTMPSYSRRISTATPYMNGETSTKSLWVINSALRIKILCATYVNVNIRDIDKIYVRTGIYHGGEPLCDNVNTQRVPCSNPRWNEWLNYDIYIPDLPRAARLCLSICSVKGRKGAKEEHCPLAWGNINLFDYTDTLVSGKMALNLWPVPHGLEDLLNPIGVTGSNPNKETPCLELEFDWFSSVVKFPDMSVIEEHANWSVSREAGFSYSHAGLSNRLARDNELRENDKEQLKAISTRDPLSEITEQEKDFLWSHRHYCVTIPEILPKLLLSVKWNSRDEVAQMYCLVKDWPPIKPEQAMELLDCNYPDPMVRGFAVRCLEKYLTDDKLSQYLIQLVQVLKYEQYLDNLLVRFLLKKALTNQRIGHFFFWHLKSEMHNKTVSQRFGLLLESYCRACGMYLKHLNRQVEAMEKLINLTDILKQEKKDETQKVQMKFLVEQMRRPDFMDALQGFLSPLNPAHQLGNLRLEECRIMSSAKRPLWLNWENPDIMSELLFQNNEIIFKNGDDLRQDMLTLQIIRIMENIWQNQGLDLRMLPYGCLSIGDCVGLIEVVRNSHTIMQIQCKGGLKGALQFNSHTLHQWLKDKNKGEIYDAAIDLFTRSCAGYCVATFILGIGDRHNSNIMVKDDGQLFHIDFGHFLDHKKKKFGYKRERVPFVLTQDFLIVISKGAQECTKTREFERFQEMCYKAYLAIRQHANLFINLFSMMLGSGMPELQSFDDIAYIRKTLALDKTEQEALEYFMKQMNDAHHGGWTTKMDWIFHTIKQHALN
# Chain of PI3Kalpha (P27986 whole entry partner, the tested form may be a part, canonical isoform): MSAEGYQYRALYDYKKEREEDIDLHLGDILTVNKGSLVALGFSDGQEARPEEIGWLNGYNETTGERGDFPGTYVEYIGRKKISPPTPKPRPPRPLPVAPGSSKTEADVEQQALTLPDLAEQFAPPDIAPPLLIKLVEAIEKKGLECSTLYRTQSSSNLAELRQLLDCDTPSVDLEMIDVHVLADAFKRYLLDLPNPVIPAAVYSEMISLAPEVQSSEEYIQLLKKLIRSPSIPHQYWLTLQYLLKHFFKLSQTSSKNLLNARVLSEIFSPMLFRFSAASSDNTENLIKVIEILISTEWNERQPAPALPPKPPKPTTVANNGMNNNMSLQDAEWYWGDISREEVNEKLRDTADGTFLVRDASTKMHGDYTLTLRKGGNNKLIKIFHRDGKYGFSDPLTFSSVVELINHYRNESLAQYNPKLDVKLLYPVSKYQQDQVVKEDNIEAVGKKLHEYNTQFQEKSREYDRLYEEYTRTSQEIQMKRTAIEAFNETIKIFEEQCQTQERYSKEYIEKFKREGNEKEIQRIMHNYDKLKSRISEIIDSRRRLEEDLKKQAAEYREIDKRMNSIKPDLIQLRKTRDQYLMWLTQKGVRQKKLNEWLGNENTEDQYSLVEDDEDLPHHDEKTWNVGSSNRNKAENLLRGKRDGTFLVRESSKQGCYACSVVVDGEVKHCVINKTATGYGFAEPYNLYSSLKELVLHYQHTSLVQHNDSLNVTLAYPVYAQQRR
# Chain of PI3Kdelta (O00329 whole entry, the tested form may be a part, canonical isoform): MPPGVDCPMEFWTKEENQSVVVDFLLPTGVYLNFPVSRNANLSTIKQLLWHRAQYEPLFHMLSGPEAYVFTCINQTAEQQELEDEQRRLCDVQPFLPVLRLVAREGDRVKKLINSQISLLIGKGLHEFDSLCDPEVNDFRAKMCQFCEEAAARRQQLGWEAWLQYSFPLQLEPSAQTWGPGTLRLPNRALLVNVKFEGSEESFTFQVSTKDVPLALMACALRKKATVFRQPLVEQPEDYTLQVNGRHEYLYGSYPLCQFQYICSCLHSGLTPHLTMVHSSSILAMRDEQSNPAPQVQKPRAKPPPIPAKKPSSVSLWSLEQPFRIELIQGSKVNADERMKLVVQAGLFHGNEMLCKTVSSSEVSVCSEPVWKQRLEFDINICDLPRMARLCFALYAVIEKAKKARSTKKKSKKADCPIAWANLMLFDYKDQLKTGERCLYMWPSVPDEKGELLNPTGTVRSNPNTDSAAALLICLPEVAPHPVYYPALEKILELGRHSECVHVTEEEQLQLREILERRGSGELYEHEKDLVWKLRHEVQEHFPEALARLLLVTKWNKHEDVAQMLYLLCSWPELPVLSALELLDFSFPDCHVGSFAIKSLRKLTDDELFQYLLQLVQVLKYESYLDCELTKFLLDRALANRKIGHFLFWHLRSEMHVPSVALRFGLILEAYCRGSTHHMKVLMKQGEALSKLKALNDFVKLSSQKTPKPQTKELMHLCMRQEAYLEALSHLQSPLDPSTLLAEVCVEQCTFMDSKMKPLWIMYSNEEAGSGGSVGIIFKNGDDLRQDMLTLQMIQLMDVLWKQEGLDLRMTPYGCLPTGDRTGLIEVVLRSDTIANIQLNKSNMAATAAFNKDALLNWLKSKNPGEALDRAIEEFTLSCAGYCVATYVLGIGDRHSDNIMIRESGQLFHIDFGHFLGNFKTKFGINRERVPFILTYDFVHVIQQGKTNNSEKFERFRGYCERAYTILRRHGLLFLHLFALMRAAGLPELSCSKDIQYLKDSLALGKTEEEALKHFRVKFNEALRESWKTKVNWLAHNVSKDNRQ
# Chain of PI3Kdelta (P27986 whole entry partner, the tested form may be a part, canonical isoform): as the sequence (P27986 whole entry partner, the tested form may be a part, canonical isoform) above
IC50 (PI3Kdelta) [nM],Selectivity versus PI3Kalpha (PI3Kalpha),Compound
9.4,>10,"C[C@@H]1CN(c2nc(-c3cnn(C)c3)nc(NCCC(F)(F)F)c2C#N)CCN1C(=O)C1CC1 [Compound 6-19, 4-[(3R)-4-(cyclopropylcarbonyl)-3-methylpiperazin-1-yl]-2-(1-methyl-1H-pyrazol-4-yl)-6-[(3,3,3-trifluoropropyl)amino]pyrimidine-5-carbonitrile]"
150,>10,"CC(C)Nc1nc(-c2cnn(C)c2)nc(N2CCN(C(=O)C3CC3)[C@H](C)C2)c1C#N [Compound 6-20, 4-[(3R)-4-(cyclopropylcarbonyl)-3-methylpiperazin-1-yl]-6-[(1-methylethyl)amino]-2-(1-methyl-1H-pyrazol-4-yl)pyrimidine-5-carbonitrile]"
21,>10,"CC(C)CNc1nc(-c2cnn(C)c2)nc(N2CCN(C(=O)C3CC3)[C@H](C)C2)c1C#N [Compound 6-21, 4-[(3R)-4-(cyclopropylcarbonyl)-3-methylpiperazin-1-yl]-6-[(2-methylpropyl)amino]-2-(1-methyl-1H-pyrazol-4-yl)pyrimidine-5-carbonitrile]"
9.7,>10,"C[C@@H]1CN(c2nc(-c3cnn(C)c3)nc(OCC(F)(F)F)c2C#N)CCN1C(=O)C1CC1 [Compound 6-22, 4-[(3R)-4-(cyclopropylcarbonyl)-3-methylpiperazin-1-yl]-2-(1-methyl-1H-pyrazol-4-yl)-6-(2,2,2-trifluoroethoxy)pyrimidine-5-carbonitrile]"
12,>10,"C[C@@H]1CN(c2nc(CCC(F)(F)F)c(C#N)c(-c3cnn(C)c3)n2)CCN1C(=O)C1CC1 [Compound 6-26, 2-[(3R)-4-(cyclopropylcarbonyl)-3-methylpiperazin-1-yl]-4-(1-methyl-1H-pyrazol-4-yl)-6-(3,3,3-trifluoropropyl)pyrimidine-5-carbonitrile]"

# Further lines, the molecule ahead of its results:
Compound,IC50 (PI3Kdelta) [nM],Selectivity versus PI3Kalpha (PI3Kalpha)
"C[C@@H]1CN(c2nc(-c3cnn(C)c3)nc(N3CC(C(F)(F)F)C3)c2C#N)CCN1C(=O)C1CC1 [Compound 6-23, 4-[(3R)-4-(cyclopropylcarbonyl)-3-methylpiperazin-1-yl]-2-(1-methyl-1H-pyrazol-4-yl)-6-[3-(trifluoromethyl)azetidin-1-yl]pyrimidine-5-carbonitrile]",83,>10
"CCCc1nc(-c2cnn(C)c2)nc(N2CCN(C(=O)C3CC3)[C@H](C)C2)c1C#N [Compound 6-24, 4-[(3R)-4-(cyclopropylcarbonyl)-3-methylpiperazin-1-yl]-2-(1-methyl-1H-pyrazol-4-yl)-6-propylpyrimidine-5-carbonitrile]",200,>10
"CCCc1nc(N2CCN(C(=O)C3CC3)[C@H](C)C2)nc(-c2cnn(C)c2)c1C#N [Compound 6-25, 2-[(3R)-4-(cyclopropylcarbonyl)-3-methylpiperazin-1-yl]-4-(1-methyl-1H-pyrazol-4-yl)-6-propylpyrimidine-5-carbonitrile]",10,>10
"C[C@@H]1CN(c2nc(-c3cnn(C)c3)c(C#N)c(C3CC3)n2)CCN1C(=O)C1CC1 [Compound 6-27, 4-cyclopropyl-2-[(3R)-4-(cyclopropylcarbonyl)-3-methylpiperazin-1-yl]-6-(1-methyl-1H-pyrazol-4-yl)pyrimidine-5-carbonitrile]",32,>10
"Cc1nn(C)cc1-c1ncc(C#N)c(N2CCN(C(=O)C3CC3)[C@H](C)C2)n1 [Compound 6-28, 4-[(3R)-4-(cyclopropylcarbonyl)-3-methylpiperazin-1-yl]-2-(1,3-dimethyl-1H-pyrazol-4-yl)pyrimidine-5-carbonitrile]",140,>10
"Cc1c(-c2ncc(C#N)c(N3CCN(C(=O)C4CC4)[C@H](C)C3)n2)cnn1C [Compound 6-29, 4-[(3R)-4-(cyclopropylcarbonyl)-3-methylpiperazin-1-yl]-2-(1,5-dimethyl-1H-pyrazol-4-yl)pyrimidine-5-carbonitrile]",81,>10
"C[C@@H]1CN(c2nc(-c3cnn(C(F)F)c3)ncc2C#N)CCN1C(=O)C1CC1 [Compound 6-30, 4-[(3R)-4-(cyclopropylcarbonyl)-3-methylpiperazin-1-yl]-2-[1-(difluoromethyl)-1H-pyrazol-4-yl]pyrimidine-5-carbonitrile]",330,>10

# From patent publication US11230547B2, “Purine inhibitors of human phosphatidylinositol 3-kinase delta” (Merck Sharp & Dohme Corp., priority 2017, dated 2022)
